How the values were obtained:
Type in all cases: physicochemical
[1] = Crystallization study: crystalline form by XRPD
Protocol: In Example 14, X-ray powder diffraction (“XRPD”), a sample of compound 1 was prepared in an open quartz glass capillary with a diameter of 0.9 mm (and was not further processed, such as by grinding). A Stoe high-low temperature attachment (working range −50 to 300) with a NiCr/Ni thermocouple for temperature measurement controlled the respective temperature conditions. The measurements were carried out with a rotating capillary and the following parameters. STOE STADI diffractometer; MYTHEN 1K detector; CuKα, 1.5406 Å radiation; Ge monochromator; 40 kV, 40 mA; moving scan; 1800 seconds per step; 2θ=3-42 degrees; 5° C./min ramp rate; and 5° C. temperature step.
Compound 1 was prepared from crude compound 1 according to the following procedure. Crude compound 1 (46 kg) was dissolved in 1080 kg of isopropyl acetate at 88.6° C. After cooling to 71° C., the solution was passed through a pre-washed and pre-heated charcoal filter. The charcoal filter was rinsed with 400 kg of hot isopropyl acetate. Under reduced pressure, the volume of the combined filtrates was concentrated to a total of 760 to 780 L. The resulting suspension was heated to 88° C. Isopropyl acetate was then added in portions (85 kg in total) to achieve complete dissolution at 88° C. The solution was cooled to 69° C. leading to a suspension which was then cooled to 0° C. within 190 minutes, and stirred at this temperature for 900 minutes. The product was isolated by filtration and rinsed with portions of cold isopropyl acetate (400 kg in total). After drying at […]/10 mbar for about 40 hours, 38.5 kg (approx. 84% of theoretical yield) of crystallized compound 1 was obtained.
Crystalline compound 1 was evaluated. Crystallization study procedures were done based on the solubility of compound 1 in the solvent under evaluation as follows.
The results are presented below in Table 10 where: * refers to compound 1 prepared as described above; and ** refers to compound 1 prepared as described above and further incubated at 100% relative humidity at 22° C. for 17 days.

[2] = Mechanical stress evaluation: thermogravimetric analysis (TGA)
Protocol: (§1) Compound 1, produced generally according to the method of Example 5, was evaluated for changes induced mechanical stress conditions, where crystallinity was evaluated by XRPD and where thermoanalytic characteristics were measured by differential scanning calorimetry (“DSC”), thermogravimetric analysis (“TGA”) and dynamic vapor sorption (“DVS”).
(§2) About 500 mg of compound 1 was dry grinded for about 5 minutes at ambient conditions with a mortar and pestle in order to simulate shear stresses encountered during a dry granulation. […] Furthermore, thermoanalytic data as measured by DSC, TGA, and DVS was only marginally different from compound 1 starting material (see Table 12 below).
(§3) The effect of pressure on compound 1 was performed to investigate whether phase transformation could occur during tableting. The conditions were 1.8 T/5 mm compact, 900 MPa, about 30 mg of compound 1, and a dwell time of about 6 seconds). The tablets were analyzed without further treatment and after gentle crushing of the tablets with a pestle. […] FIG. 2 pattern (b) is the XRPD pattern for crushed tablets. FIG. 2 pattern (c) is the XRPD pattern for tablets that were not crushed.
(§4) To simulate wet milling, wet manual grinding experiments were done. About 500 mg of compound 1 and about 0.5 mL water were kneaded for about 5 minutes with a mortar and pestle. About 100 mg of the wet material was analyzed by XRPD. The remainder of the material was dried overnight in an oven at 50° C. and ambient pressure. The dried material was analyzed by […], DSC, TGA, and DVS.

[3] = Mechanical stress evaluation: dynamic vapor sorption (DVS)
Protocol: as §1, §2, §3, §4

[4] = after Dry Granulation (dry grinding about 5 minutes, mortar and pestle)
[5] = after Wet Granulation (wet manual grinding with water, dried at 50° C.)
[6] = untreated compound 1 starting material

Q: Which “Crystalline Form” value ([1]; * compound 1 as prepared (crystallized from isopropyl acetate)) does the source give for Nc1ncc(-c2cc(N3C[C@@H]4C[C@H]3CO4)nc(N3CCC(F)(F)C3)n2)cc1OC(F)F [Compound 1, 5-(6-((1S,4S)-2-oxa-5-azabicyclo[2.2.1]heptan-5-yl)-2-(3,3-difluoropyrrolidin-1-yl)pyrimidin-4-yl)-3-(difluoromethoxy)pyridin-2-amine] here?
A: Form A

Q: What about the “Crystalline Form” value ([1]; ** as prepared and further incubated at 100% relative humidity at 22° C. for 17 days) of the same compound?
A: Form A

Q: And the “Crystalline Form” value ([1]; crystallization study solvent: 2-methyl THF)?
A: Form A

Q: And the “Crystalline Form” value ([1]; crystallization study solvent: 5% water in ethanol)?
A: Form A

Q: And the “Crystalline Form” value ([1]; crystallization study solvent: 5% water in isopropanol)?
A: Form A

Q: And the “Crystalline Form” value ([1]; crystallization study solvent: 5% water in methanol)?
A: Form A

Q: What about the “Crystalline Form” value ([1]; crystallization study solvent: 5% water in propanol) of the same compound?
A: Form A

Q: What about the “Crystalline Form” value ([1]; crystallization study solvent: 15% water in THF) of the same compound?
A: Form A

Q: And the “Crystalline Form” value ([1]; crystallization study solvent: 15% water in acetone)?
A: Form A

Q: And the “Crystalline Form” value ([1]; crystallization study solvent: 15% water in ethanol)?
A: Form A

Q: And the “Crystalline Form” value ([1]; crystallization study solvent: 15% water in isopropanol)?
A: Form A

Q: And the “Crystalline Form” value ([1]; crystallization study solvent: 15% water in methanol)?
A: Form A

Q: What about the “Crystalline Form” value ([1]; crystallization study solvent: 15% water in propanol) of the same compound?
A: Form A

Q: What about the “Crystalline Form” value ([1]; crystallization study solvent: 20% water in acetonitrile) of the same compound?
A: Form A

Q: What about the “Crystalline Form” value ([1]; crystallization study solvent: 50% water in acetonitrile) of the same compound?
A: Form A

Q: And the “Crystalline Form” value ([1]; crystallization study solvent: 50% water in ethanol)?
A: Form A

Q: And the “Crystalline Form” value ([1]; crystallization study solvent: 50% water in isopropanol)?
A: Form A

Q: And the “Crystalline Form” value ([1]; crystallization study solvent: 50% water in methanol)?
A: Form A

Q: And the “Crystalline Form” value ([1]; crystallization study solvent: 50% water in propanol)?
A: Form A

Q: What about the “Crystalline Form” value ([1]; crystallization study solvent: 80% water in acetonitrile) of the same compound?
A: Form A

Q: And the “Crystalline Form” value ([1]; crystallization study solvent: Acetic acid)?
A: Form A

Q: And the “Crystalline Form” value ([1]; crystallization study solvent: Acetone)?
A: Form A

Q: What about the “Crystalline Form” value ([1]; crystallization study solvent: Acetonitrile) of the same compound?
A: Form A

Q: What about the “Crystalline Form” value ([1]; crystallization study solvent: Butanol) of the same compound?
A: Form A

Q: And the “Crystalline Form” value ([1]; crystallization study solvent: Chloroform)?
A: Form A

Q: What about the “Crystalline Form” value ([1]; crystallization study solvent: DMA) of the same compound?
A: Form A

Q: What about the “Crystalline Form” value ([1]; crystallization study solvent: DMF) of the same compound?
A: Form A

Q: What about the “Crystalline Form” value ([1]; crystallization study solvent: DMSO) of the same compound?
A: Form A

Q: What about the “Crystalline Form” value ([1]; crystallization study solvent: Dichloromethane) of the same compound?
A: Form A

Q: What about the “Crystalline Form” value ([1]; crystallization study solvent: Diisopropylamine) of the same compound?
A: Form A

Q: What about the “Crystalline Form” value ([1]; crystallization study solvent: Dimethyl carbonate) of the same compound?
A: Form A

Q: What about the “Crystalline Form” value ([1]; crystallization study solvent: Dioxane) of the same compound?
A: Form A

Q: And the “Crystalline Form” value ([1]; crystallization study solvent: Ethanol)?
A: Form A

Q: What about the “Crystalline Form” value ([1]; crystallization study solvent: Ethyl acetate) of the same compound?
A: Form A

Q: What about the “Crystalline Form” value ([1]; crystallization study solvent: Isopropanol) of the same compound?
A: Form A

Q: What about the “Crystalline Form” value ([1]; crystallization study solvent: Isopropyl acetate) of the same compound?
A: Form A

Q: And the “Crystalline Form” value ([1]; crystallization study solvent: MEK)?
A: Form A

Q: And the “Crystalline Form” value ([1]; crystallization study solvent: MIBK)?
A: Form A

Q: And the “Crystalline Form” value ([1]; crystallization study solvent: MTBE)?
A: Form A

Q: What about the “Crystalline Form” value ([1]; crystallization study solvent: Methanol) of the same compound?
A: Form A

Q: And the “Crystalline Form” value ([1]; crystallization study solvent: NMP)?
A: Form A

Q: And the “Crystalline Form” value ([1]; crystallization study solvent: Nitromethane)?
A: Form A

Q: What about the “Crystalline Form” value ([1]; crystallization study solvent: Propanol) of the same compound?
A: Form A

Q: And the “Crystalline Form” value ([1]; crystallization study solvent: THF)?
A: Form A

Q: And the “Crystalline Form” value ([1]; crystallization study solvent: Toluene)?
A: Form A

Q: And the “Crystalline Form” value ([1]; crystallization study solvent: Water)?
A: Form A

Q: What about the “Crystalline Form” value ([1]; crystallization study solvent: i-Butanol) of the same compound?
A: Form A

Q: And the “Crystalline Form” value ([1]; crystallization study solvent: n-Heptane)?
A: Form A

Q: What about the “Crystalline Form” value ([1]; crystallization study solvent: s-butanol) of the same compound?
A: Form A

Q: And the “TGA Total wt. loss” value [2, 4]?
A: 0.2% m/m

Q: What about the “TGA Total wt. loss” value ([2]; after Tableting (900 MPa)) of the same compound?
A: 0.3% m/m

Q: And the “TGA Total wt. loss” value ([2]; after Tableting (crushing))?
A: 0.3% m/m

Q: And the “TGA Total wt. loss” value [2, 5]?
A: 0.2% m/m

Q: What about the “TGA Total wt. loss” value [2, 6] of the same compound?
A: 0.1% m/m

Q: And the “DVS Δm (0-90% RH)” value [3, 4]?
A: 0.1% m/m

Q: What about the “DVS Δm (0-90% RH)” value ([3]; after Tableting (900 MPa)) of the same compound?
A: <0.1% m/m

Q: And the “DVS Δm (0-90% RH)” value ([3]; after Tableting (crushing))?
A: 0.1% m/m

Q: What about the “DVS Δm (0-90% RH)” value [3, 5] of the same compound?
A: <0.1% m/m

Q: What about the “hygroscopicity by DVS” value ([3]; compacted (tableted) samples versus starting material) of the same compound?
A: did not show a significant increase of hygroscopicity

Q: What about the “DVS Δm (0-90% RH)” value [3, 6] of the same compound?
A: <0.1% m/m

Reference: US20230312473A1, “PROCESS FOR THE PREPARATION OF BIHETEROARYL COMPOUNDS AND CRYSTAL FORMS THEREOF” (Genentech, Inc., priority 2020, published 2023)
